Assays:
[1] = target: T1, AAH1 (toxoplasmic aromatic amino acid hydroxylase 1), catalytic domain (Toxoplasma gondii, UniProt S8G872); assay: DARTS (Pronase protection, Western blot); type: binding; details: 10 µM compound, and dose-dependent; room temperature
T1 construct: catalytic domain, pET-45b (His-tag), expressed in E. coli BL21 GOLD (DE3) pLysS, cobalt resin
T1 sequence (S8G872 1-390 limits assumed): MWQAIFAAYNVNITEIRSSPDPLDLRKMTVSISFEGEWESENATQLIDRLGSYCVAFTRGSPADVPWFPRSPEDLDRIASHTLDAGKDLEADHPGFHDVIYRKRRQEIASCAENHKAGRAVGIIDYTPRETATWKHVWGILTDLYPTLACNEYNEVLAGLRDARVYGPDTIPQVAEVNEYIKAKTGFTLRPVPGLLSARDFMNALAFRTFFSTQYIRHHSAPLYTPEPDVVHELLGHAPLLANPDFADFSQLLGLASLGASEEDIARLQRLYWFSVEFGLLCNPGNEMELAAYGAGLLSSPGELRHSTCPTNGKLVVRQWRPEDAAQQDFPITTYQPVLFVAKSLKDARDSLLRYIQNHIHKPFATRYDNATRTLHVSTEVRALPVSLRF

[2] = target: T2, AAH2 (toxoplasmic aromatic amino acid hydroxylase 2), catalytic domain (Toxoplasma gondii, UniProt S8FBW5); assay: coupled NADH oxidation assay (dihydropteridine reductase), […] nm; fit to competitive inhibition equation; type: biochemical; details: read-out: KI ^c
T2 construct: catalytic domain, pET-45b (His-tag), expressed in E. coli BL21 GOLD (DE3) pLysS, cobalt resin
T2 sequence (S8FBW5 156-565): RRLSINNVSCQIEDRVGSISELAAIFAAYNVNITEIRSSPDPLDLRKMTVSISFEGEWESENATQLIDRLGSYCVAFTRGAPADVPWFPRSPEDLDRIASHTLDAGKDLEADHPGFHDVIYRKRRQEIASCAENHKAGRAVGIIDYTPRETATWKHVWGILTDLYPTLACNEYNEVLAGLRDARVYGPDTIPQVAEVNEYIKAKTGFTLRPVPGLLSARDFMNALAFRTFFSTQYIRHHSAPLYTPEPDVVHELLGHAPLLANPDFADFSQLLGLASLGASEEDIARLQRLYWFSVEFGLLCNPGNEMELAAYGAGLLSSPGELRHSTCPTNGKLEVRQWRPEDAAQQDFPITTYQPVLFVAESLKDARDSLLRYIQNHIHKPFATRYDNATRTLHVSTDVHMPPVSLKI

[3] = target: T1, AAH1 (toxoplasmic aromatic amino acid hydroxylase 1), catalytic domain; assay: as above; type: biochemical; details: read-out: KI ^c
purified protein = substrate: N[C@@H](Cc1ccc(O)cc1)C(=O)O; assay: purified protein; type: biochemical, Toxoplasma gondii; details: no inhibitor, 500 µM (6R)-BH4, 500 µM NADH, 10 µM ferrous ammonium sulfate, pH 7.5, 32 °C

Molecule: Cc1nc[nH]c1C(=O)NNC(=S)Nc1ccc([N+](=O)[O-])cc1 [2a]
- DARTS (Pronase protection, Western blot) [1]: Proteolysis of AAH1 by Pronase was clearly inhibited by the presence of 2a and 6a
- Ki [2]: 3690 nM
- Ki [3]: 1490 nM

Molecule: Cc1nc[nH]c1C(=O)NNC(=S)Nc1cccc(I)c1 [6a]
- DARTS (Pronase protection, Western blot) [1]: Proteolysis of AAH1 by Pronase was clearly inhibited by the presence of 2a and 6a
- Ki [2]: 3230 nM
- Ki [3]: 1260 nM

B1: AAH1 (toxoplasmic aromatic amino acid hydroxylase 1), catalytic domain (Toxoplasma gondii ME49) (protein)
chain: MWQAIFAAYNVNITEIRSSPDPLDLRKMTVSISFEGEWESENATQLIDRLGSYCVAFTRGSPADVPWFPRSPEDLDRIASHTLDAGKDLEADHPGFHDVIYRKRRQEIASCAENHKAGRAVGIIDYTPRETATWKHVWGILTDLYPTLACNEYNEVLAGLRDARVYGPDTIPQVAEVNEYIKAKTGFTLRPVPGLLSARDFMNALAFRTFFSTQYIRHHSAPLYTPEPDVVHELLGHAPLLANPDFADFSQLLGLASLGASEEDIARLQRLYWFSVEFGLLCNPGNEMELAAYGAGLLSSPGELRHSTCPTNGKLVVRQWRPEDAAQQDFPITTYQPVLFVAKSLKDARDSLLRYIQNHIHKPFATRYDNATRTLHVSTEVRALPVSLRF
notes: catalytic domain, pET-45b (His-tag), expressed in E. coli BL21 GOLD (DE3) pLysS, cobalt resin
- Km (purified protein): 30 µM

B2: AAH2 (toxoplasmic aromatic amino acid hydroxylase 2), catalytic domain (Toxoplasma gondii ME49) (protein)
chain: RRLSINNVSCQIEDRVGSISELAAIFAAYNVNITEIRSSPDPLDLRKMTVSISFEGEWESENATQLIDRLGSYCVAFTRGAPADVPWFPRSPEDLDRIASHTLDAGKDLEADHPGFHDVIYRKRRQEIASCAENHKAGRAVGIIDYTPRETATWKHVWGILTDLYPTLACNEYNEVLAGLRDARVYGPDTIPQVAEVNEYIKAKTGFTLRPVPGLLSARDFMNALAFRTFFSTQYIRHHSAPLYTPEPDVVHELLGHAPLLANPDFADFSQLLGLASLGASEEDIARLQRLYWFSVEFGLLCNPGNEMELAAYGAGLLSSPGELRHSTCPTNGKLEVRQWRPEDAAQQDFPITTYQPVLFVAESLKDARDSLLRYIQNHIHKPFATRYDNATRTLHVSTDVHMPPVSLKI
notes: as for B1
- Km (purified protein): 71 µM
